Measured values as given in patent US20260285888A1, “HETEROCYCLIC COMPOUND AND USE THEREOF” (OTSUKA PHARMACEUTICAL CO., LTD., priority 2023, published 2026).

Assay: Study for confirmation of conversion to brexpiprazole in a buffer (stability of the evaluation compounds)
Assay type: physicochemical
Conditions: in buffer, average of duplicate; for Concentration of brexpiprazole formed: 60-minute reaction sample; for Concentration of evaluation compound decreased: decrease in 60-minute vs 0-minute reaction sample
Method: The conversion from the evaluation compounds to brexpiprazole in a buffer (i.e., the stability of the evaluation compounds) was evaluated.
The Example 1 compound was dissolved in acetonitrile/water (1:1, v/v) to 10 mmol/L and further diluted with acetonitrile/water (1:1, v/v) to 100 μmol/L for use.
The other Example compounds and the Reference Example 5 compound to Reference Example 7 compound were each dissolved in DMSO to 10 mmol/L and further diluted with acetonitrile to 100 μmol/L for use, except for the following compounds.
The compounds of Examples 52, 95, 96, 117, and 130 (EX 52, EX 95, EX 96, EX 117, and EX 130) were dissolved in acetonitrile/water (8:2, v/v) to 10 mmol/L and further diluted with acetonitrile to 100 μmol/L for use.
The compound of Example 97 (EX 97) was dissolved in acetonitrile/water (8:2, v/v) to 10 mmol/L and further diluted with acetonitrile/water (8:2, v/v) to 100 μmol/L for use.
The compounds of Examples 15 and 116 (EX 15 and EX 116) were dissolved in DMSO to 1 mmol/L and further diluted with acetonitrile to 100 μmol/L for use.
The reaction was conducted by preparing each reaction solution such that the final concentration of each component was as follows. The test was conducted in duplicate.
For the compounds of Examples 1 to 8, 10 to 19, 26 to 27, 37, 50, 87 to 89, 91, 116, 121, 123, 150, and 151 (EX 1 to EX 8, EX 10 to EX 19, EX 26 to EX 27, EX 37, EX 50, EX 87 to EX 89, EX 91, EX 116, EX 121, EX 123, EX 150, and EX 151), and the compounds of Reference Examples 5 to 7 (REX 5 to REX 7), the reaction solution without the evaluation compound (198 μl) was pre-incubated at 37° C. for 3 minutes, and then each of the evaluation compound solutions (2 μl) was added and stirred; thereafter, the reaction was started at 37° C. At 0 minutes or 60 minutes after the start of the reaction, the reaction was stopped by adding and stirring a reaction stop solution (1000 μl) composed of acetonitrile/isopropanol (4:1, v/v) containing internal standard substances. However, the 0-minute reaction sample (198 μl) was prepared by adding the evaluation compound (2 μl) after adding the reaction stop solution (1000 μl). The samples after stopping the reaction were used as the measurement samples. Calibration curve samples with the same composition were prepared (final concentrations of the evaluation compounds and brexpiprazole: 0.01, 0.1, and 1 μmol/L, with the proviso that for the evaluation compounds only, the 0-minute reaction samples were also used as calibration curve samples for 1 μmol/L).
For the compounds of Examples 24 to 25, 28 to 29, 32 to 36, 40 to 49, 51 to 60, 62 to 64, 66 to 77, 80 to 86, 90, 92 to 111, 113, 115, 117 to 120, 122, 124 to 130, 132 to 147, and 152 to 160 (EX 24 to EX 25, EX 28 to EX 29, EX 32 to EX 36, EX 40 to EX 49, EX 51 to EX 60, EX 62 to EX 64, EX 66 to EX 77, EX 80 to EX 86, EX 90, EX 92 to EX 111, EX 113, EX 115, EX 117 to EX 120, EX 122, EX 124 to EX 130, EX 132 to EX 147, and EX 152 to EX 160), the reaction solution without the evaluation compound (148.5 μl) was pre-incubated at 37° C. for 3 minutes, and then each of the evaluation compound solutions (1.5 μl) was added and stirred; thereafter, the reaction was started at 37° C. At 0 minutes or 60 minutes after the start of the reaction, the reaction was stopped by adding and stirring a reaction stop solution (600 μl) composed of acetonitrile/isopropanol (4:1, v/v) containing internal standard substances. However, the 0-minute reaction sample (148.5 μl) was prepared by adding the evaluation compound (1.5 μl) after adding the reaction stop solution (600 μl). The samples after stopping the reaction were used as the measurement samples. Calibration curve samples with the same composition were prepared (final concentrations of the evaluation compounds and brexpiprazole: 0.01, 0.1, and 1 μmol/L, with the proviso that for the evaluation compounds only, the 0-minute reaction samples were also used as calibration curve samples for 1 μmol/L). […]

Compound | Concentration of brexpiprazole formed [nM] | Concentration of evaluation compound decreased [nM]
CC(C)(C)OP(=O)([O-])OC[N+]1(CCCCOc2ccc3ccc(=O)[nH]c3c2)CCN(c2cccc3sccc23)CC1 [EX 4, (4-(benzo[b]thiophen-4-yl)-1-(4-((2-oxo-1,2-dihydroquinolin-7-yl)oxy)butyl)piperazin-1-ium-1-yl)methyl tert-butyl phosphate] | 0 | 20
CC(C)OP(=O)([O-])OC[N+]1(CCCCOc2ccc3ccc(=O)[nH]c3c2)CCN(c2cccc3sccc23)CC1 [EX 5, (4-(benzo[b]thiophen-4-yl)-1-(4-((2-oxo-1,2-dihydroquinolin-7-yl)oxy)butyl)piperazin-1-ium-1-yl)methyl isopropyl phosphate] | 0 | 70
CCCCCCCC(=O)OCOP(=O)([O-])OC[N+]1(CCCCOc2ccc3ccc(=O)[nH]c3c2)CCN(c2cccc3sccc23)CC1 [EX 27, (4-(benzo[b]thiophen-4-yl)-1-(4-((2-oxo-1,2-dihydroquinolin-7-yl)oxy)butyl)piperazin-1-ium-1-yl)methyl ((octanoyloxy)methyl) phosphate] | 0 | 0
CCCCCCCCOP(=O)([O-])OC[N+]1(CCCCOc2ccc3ccc(=O)[nH]c3c2)CCN(c2cccc3sccc23)CC1 [EX 37, (4-(benzo[b]thiophen-4-yl)-1-(4-((2-oxo-1,2-dihydroquinolin-7-yl)oxy)butyl)piperazin-1-ium-1-yl)methyl octyl phosphate] | 0 | 60
COc1ccc(C(=O)OCCCCCCOP(=O)([O-])OC[N+]2(CCCCOc3ccc4ccc(=O)[nH]c4c3)CCN(c3cccc4sccc34)CC2)cc1 [EX 58, (4-(benzo[b]thiophen-4-yl)-1-(4-((2-oxo-1,2-dihydroquinolin-7-yl)oxy)butyl)piperazin-1-ium-1-yl)methyl (6-((4-methoxybenzoyl)oxy)hexyl) phosphate] | 0 | 40
O=c1ccc2ccc(OCCCC[N+]3(COP(=O)([O-])OCC#CCCl)CCN(c4cccc5sccc45)CC3)cc2[nH]1 [EX 63, (4-(benzo[b]thiophen-4-yl)-1-(4-((2-oxo-1,2-dihydroquinolin-7-yl)oxy)butyl)piperazin-1-ium-1-yl)methyl (4-chlorobut-2-yn-1-yl) phosphate] | 0 | 20
CC(C)(C)OC(=O)CCCC(=O)OCOP(=O)([O-])OC[N+]1(CCCCOc2ccc3ccc(=O)[nH]c3c2)CCN(c2cccc3sccc23)CC1 [EX 69, (4-(benzo[b]thiophen-4-yl)-1-(4-((2-oxo-1,2-dihydroquinolin-7-yl)oxy)butyl)piperazin-1-ium-1-yl)methyl (((5-(tert-butoxy)-5-oxopentanoyl)oxy)methyl) phosphate] | 0 | -10
CC(C)NC(=O)CCCCCCCCC(=O)OCOP(=O)([O-])OC[N+]1(CCCCOc2ccc3ccc(=O)[nH]c3c2)CCN(c2cccc3sccc23)CC1 [EX 76, (4-(benzo[b]thiophen-4-yl)-1-(4-((2-oxo-1,2-dihydroquinolin-7-yl)oxy)butyl)piperazin-1-ium-1-yl)methyl (((10-(isopropylamino)-10-oxodecanoyl)oxy)methyl) phosphate] | 0 | 0

Other lines, results leading:

Concentration of brexpiprazole formed [nM] | Concentration of evaluation compound decreased [nM] | Compound
0 | -110 | O=c1ccc2ccc(OCCCC[N+]3(COP(=O)([O-])OCCCO)CCN(c4cccc5sccc45)CC3)cc2[nH]1 [EX 6, (4-(benzo[b]thiophen-4-yl)-1-(4-((2-oxo-1,2-dihydroquinolin-7-yl)oxy)butyl)piperazin-1-ium-1-yl)methyl (3-hydroxypropyl) phosphate]
0 | -10 | CC(C)(C)C(=O)OCOP(=O)([O-])OC[N+]1(CCCCOc2ccc3ccc(=O)[nH]c3c2)CCN(c2cccc3sccc23)CC1 [EX 25, (4-(benzo[b]thiophen-4-yl)-1-(4-((2-oxo-1,2-dihydroquinolin-7-yl)oxy)butyl)piperazin-1-ium-1-yl)methyl ((pivaloyloxy)methyl) phosphate]
0 | 90 | CCOC(=O)CCCC(=O)OCOP(=O)([O-])OC[N+]1(CCCCOc2ccc3ccc(=O)[nH]c3c2)CCN(c2cccc3sccc23)CC1 [EX 68, (4-(benzo[b]thiophen-4-yl)-1-(4-((2-oxo-1,2-dihydroquinolin-7-yl)oxy)butylpiperazin-1-ium-1-yl)methyl (((5-ethoxy-5-oxopentanoyl)oxy)methyl) phosphate]
0 | 150 | COc1ccc(COC(=O)CC(C)(C)CC(=O)OCOP(=O)([O-])OC[N+]2(CCCCOc3ccc4ccc(=O)[nH]c4c3)CCN(c3cccc4sccc34)CC2)cc1 [EX 72, (4-(benzo[b]thiophen-4-yl)-1-(4-((2-oxo-1,2-dihydroquinolin-7-yl)oxy)butyl)piperazin-1-ium-1-yl)methyl (((5-((4-methoxybenzyl)oxy)-3,3-dimethyl-5-oxopentanoyl)oxy)methyl) phosphate]
0 | 130 | CC(C)NC(=O)CCCC(=O)OCOP(=O)([O-])OC[N+]1(CCCCOc2ccc3ccc(=O)[nH]c3c2)CCN(c2cccc3sccc23)CC1 [EX 73, (4-(benzo[b]thiophen-4-yl)-1-(4-((2-oxo-1,2-dihydroquinolin-7-yl)oxy)butyl)piperazin-1-ium-1-yl)methyl (((5-(isopropylamino)-5-oxopentanoyl)oxy)methyl) phosphate]
0 | 70 | CC1(C)OCC(COC(=O)CCCCC(=O)OCOP(=O)([O-])OC[N+]2(CCCCOc3ccc4ccc(=O)[nH]c4c3)CCN(c3cccc4sccc34)CC2)CO1 [EX 75, (4-(benzo[b]thiophen-4-yl)-1-(4-((2-oxo-1,2-dihydroquinolin-7-yl)oxy)butyl)piperazin-1-ium-1-yl)methyl (((6-((2,2-dimethyl-1.3-dioxan-5-yl)methoxy)-6-oxohexanoyl)oxy)methyl) phosphate]
0 | 40 | O=C(OCCCCCCOP(=O)([O-])OC[N+]1(CCCCOc2ccc3ccc(=O)[nH]c3c2)CCN(c2cccc3sccc23)CC1)c1ccc([N+](=O)[O-])cc1 [EX 85, (4-(benzo[b]thiophen-4-yl)-1-(4-((2-oxo-1,2-dihydroquinolin-7-yl)oxy)butyl)piperazin-1-ium-1-yl)methyl (6-((4-nitrobenzoyl)oxy)hexyl) phosphate]
